Assay results as given in US20180200279A1, “INHIBITION OF HSV-1-ASSOCIATED CORNEAL NEOVASCULARIZATION USING INHIBITORS OF CYCLIN-DEPENDENT KINASE 9” (XAVIER UNIVERSITY OF LOUISIANA, priority 2014, published 2018).

Assays:
[1] = Ocular safety and tolerability of the formulation, mouse eyes; format: in vivo; conditions: dose and frequency of the HSV-1 corneal neovascularization study
Description: (§1) This was assessed with the dose and frequency that was used in the chemotherapeutic study of HSV-1 corneal neovascularization. FIG. 1A presents the results of slit-lamp examination (SLE) scores of the corneas of the four treatment groups beginning on post-inoculation day 2 and continuing to 25 days following infection.

HSV-1 17syn+ = experiment: Real-time PCR of HSV-1 DNA on ocular swabs of infected mice; format: in vivo, Balb/c mice; conditions: day 25 post infection; 1% TFT, 0.01% flavopiridol, 0.1% DRB drops; n=10
Description: SYBR Green semi-quantitative real-time PCR was performed on DNA samples eluted from swabs taken from mouse eyes on days 2, 4, 7, 9, 11, 14, 18 and 25 post infection with 5×10^5 PFU/eye HSV-1 17syn+ using primers specific for HSV-1 DNA polymerase.
All experimental procedures were performed in accordance with the ARVO Resolution for the Use of Animals in Ophthalmic and Vision Research and were approved by the Xavier University Animal Care and Use Committee. Female 20 g Balb/c mice were obtained from Charles River Laboratories. Mice were allowed to equilibrate to their surroundings for 2 weeks and then were anesthetized by intramuscular administration of xylazine (6.6 mg/kg of body weight) and ketamine (100 mg/kg of body weight). The corneas were mildly scarified in a 2×2 cross-hatch pattern and each cornea was inoculated with 5×10^5 PFU of strain HSV 17syn+. […] DNA was collected by swabbing the eyes with filter paper, and the eyes were examined with a slit-lamp on PI days 2, 4, 7, 9, 11, 14, 18 and 25. Average neovascularization/eye was scored using the formula A=(C×0.4×L×π)/2 where C=clock hours of neovascularization; 30° arc is 1 (360° circle with a total of 12); L is the length of the longest neovessel, and A is the area of neovascularization. Students scored (by eye) the animals on the days indicated in a masked fashion using the slit-lamp, and images representative of each group were taken. Clinical scores based on epiphora, inflammation and discharge were calculated where 0=no manifestations, +1=slight manifestations, +2=moderate manifestations, and +3=severe manifestations. […] Ex ovo chick embryo chorioallantoic membrane collagen angiogenesis assays were performed using methods as previously described (Deryugina E I and Quigley J P. Chapter 2. Chick embryo chorioallantoic membrane models to quantify angiogenesis induced by inflammatory and tumor cells or purified effector molecules. Methods Enzymol. 444:21-41. 2008). […]

[2] = test system: HSV-1 17syn+ ocular infection; experiment: HSV-1 ocular infection mouse model, H&E histology of eyes (leukocytic infiltration, peripheral neovascularization); format: in vivo, Balb/c mice; conditions: day 25 PI; for mouse eyes exhibiting corneal neovascularization / mouse eyes exhibiting leukocytic infiltration: H&E sections; for histological score (scale 0-1) for leukocytic infiltrate and peripheral neovascularization: H&E stained corneal sections
Description: Histological score (0-1) was calculated based on leukocytic infiltration and peripheral neovascularization of hematoxylin & eosin (H&E) stained slides of mouse eyes on day 25 PI.
(§2) All experimental procedures were performed in accordance with the ARVO Resolution for the Use of Animals in Ophthalmic and Vision Research and were approved by the Xavier University Animal Care and Use Committee. Female 20 g Balb/c mice were obtained from Charles River Laboratories. Mice were allowed to equilibrate to their surroundings for 2 weeks and then were anesthetized by intramuscular administration of xylazine (6.6 mg/kg of body weight) and ketamine (100 mg/kg of body weight). The corneas were mildly scarified in a 2×2 cross-hatch pattern and each cornea was inoculated with 5×10^5 PFU of strain HSV 17syn+. […] DNA was collected by swabbing the eyes with filter paper, and the eyes were examined with a slit-lamp on PI days 2, 4, 7, 9, 11, 14, 18 and 25. Average neovascularization/eye was scored using the formula A=(C×0.4×L×π)/2 where C=clock hours of neovascularization; 30° arc is 1 (360° circle with a total of 12); L is the length of the longest neovessel, and A is the area of neovascularization. Students scored (by eye) the animals on the days indicated in a masked fashion using the slit-lamp, and images representative of each group were taken. Clinical scores based on epiphora, inflammation and discharge were calculated where 0=no manifestations, +1=slight manifestations, +2=moderate manifestations, and +3=severe manifestations. Mice were sacrificed with CO2 on day 25 post-infection, and eyes were harvested, sectioned, stained with hematoxylin and eosin (H&E) for histological analysis based on peripheral neovascularization and leukocytic infiltration where 0=clear eyes, 0.5=either peripheral neovascularization or leukocytic infiltration, and 1=both peripheral neovascularization and leukocytic infiltration. Ex ovo chick embryo chorioallantoic membrane collagen angiogenesis assays were performed using methods as previously described (Deryugina E I and Quigley J P. Chapter 2. Chick embryo chorioallantoic membrane models to quantify angiogenesis induced by inflammatory and tumor cells or purified effector molecules. Methods Enzymol. 444:21-41. 2008). Briefly, fertilized embryos (Charles River Laboratories, Charleston, S.C.) were incubated at 37.5° C. for 3 days, removed from their shell using a Dremel tool and placed into a covered weighing boat for 7 further days of incubation. […] Four collagen onplants were added per egg on at least 3 separate eggs. After three additional days of incubation, images were taken of each plug using a mini-Vid camera (LW Scientific; Lawrenceville, Ga.) and quantified in a masked fashion based on the percentage of grids that were positive for newly formed blood vessels.
To confirm the results in FIGS. 1A and 1B, sections of one cornea from each mouse was sectioned, stained with H&E and analyzed for leukocytic infiltrate and peripheral neovascularization of the cornea.

[3] = Ocular safety and tolerability of the formulation, rabbit eyes; format: in vivo; conditions: dose and frequency of the HSV-1 corneal neovascularization study
Description: as §1

[4] = test system: HSV-1 17syn+ induced corneal neovascularization; experiment: HSV-1 corneal neovascularization mouse model, slit-lamp examination score; format: in vivo, Balb/c mice; conditions: day 25 post infection; drops 4 times daily for 14 days; 1% TFT, 0.01% flavopiridol, 0.1% DRB; n=10
Description: Corneal neovascularization was determined in a masked fashion by slit lamp analysis on days 2, 4, 7, 9, 11, 14, 18, and 25 post-infection (PI) with 5×10^5 PFU/eye of HSV-1 17syn+ using the formula A=(C×0.4×L×n)/2 where C=clock hours of neovascularization; 30° arc is 1 (360° circle with a total of 12); L is the length of the longest neovessel, and A is the area of neovascularization.
All experimental procedures were performed in accordance with the ARVO Resolution for the Use of Animals in Ophthalmic and Vision Research and were approved by the Xavier University Animal Care and Use Committee. Female 20 g Balb/c mice were obtained from Charles River Laboratories. Mice were allowed to equilibrate to their surroundings for 2 weeks and then were anesthetized by intramuscular administration of xylazine (6.6 mg/kg of body weight) and ketamine (100 mg/kg of body weight). The corneas were mildly scarified in a 2×2 cross-hatch pattern and each cornea was inoculated with 5×10^5 PFU of strain HSV 17syn+. […] Average neovascularization/eye was scored using the formula A=(C×0.4×L×π)/2 where C=clock hours of neovascularization; 30° arc is 1 (360° circle with a total of 12); L is the length of the longest neovessel, and A is the area of neovascularization. Students scored (by eye) the animals on the days indicated in a masked fashion using the slit-lamp, and images representative of each group were taken. Clinical scores based on epiphora, inflammation and discharge were calculated where 0=no manifestations, +1=slight manifestations, +2=moderate manifestations, and +3=severe manifestations. […] Ex ovo chick embryo chorioallantoic membrane collagen angiogenesis assays were performed using methods as previously described (Deryugina E I and Quigley J P. Chapter 2. Chick embryo chorioallantoic membrane models to quantify angiogenesis induced by inflammatory and tumor cells or purified effector molecules. Methods Enzymol. 444:21-41. 2008). […]
This was assessed with the dose and frequency that was used in the chemotherapeutic study of HSV-1 corneal neovascularization. […]

HSV-1 = experiment: In vitro viral inhibition (plaque) assay in CV-1 cells; format: cell-based
Description: Numbers of plaque-forming units (PFU) were determined in a standard plaque assay procedure using CV-1 cells.
The HSV-1 strain employed was 17 syn+. Before inoculation, numbers of plaque-forming units (PFU) were determined in a standard plaque assay procedure using CV-1 cells. Pooled primary human umbilical vein endothelial cells (HUVEC) were obtained from Lonza (Basel, Switzerland) and were cultured in Medium 199 (Life Technologies, Carlsbad, Calif.) supplemented with 20% heat-inactivated FBS, penicillin G (100 U/ml), streptomycin ([…]), 2 mM L-glutamine and 1:100 endothelial cell growth supplement (ECGS, BD Biosciences, Bedford, Mass.) on tissue culture plates coated with 0.2% gelatin up to passage 6. Cells were sub-passaged or harvested when they reached ˜80% confluence. For periods of serum-deprivation, HUVEC were incubated for 4 or 16 hours in serum-starvation medium (SSM) containing Medium 199 without phenol red or ECGS but containing 0.5% FBS unless otherwise indicated. In vitro viral inhibition assays with CV-1 cells were performed as previously described (Gong E Y. Methods for screening and profiling inhibitors of herpes simplex viruses. Methods Mol Biol. 1030:303-313. 2013).

[5] = test system: HSV-1 17syn+ ocular infection; experiment: HSV-1 ocular infection mouse model, combined clinical score (epiphora, inflammation, discharge); format: in vivo, Balb/c mice; conditions: 1% TFT, 0.01% flavopiridol, 0.1% DRB drops
Description: The combined clinical score was determined based on epiphora (excess tearing), inflammation and discharge. […], +1=slight manifestations, +2=moderate manifestations, and +3=severe manifestations.
as §2
FIG. 1B is the combined clinical score for the treatment groups based on epiphora (excess tearing), inflammation, and discharge.

Compound	safety and tolerability of the formulation in the eye [1]	quantitative real-time PCR score (HSV-1 DNA) on ocular swabs (HSV-1 17syn+)	mouse eyes exhibiting corneal neovascularization [2] [%]	mouse eyes exhibiting leukocytic infiltration [2] [%]	histological score (scale 0-1) for leukocytic infiltrate and peripheral neovascularization [2]	safety and tolerability of the formulation in the eye [3]	slit-lamp examination (SLE) score of corneal neovascularization [4]	concentration at which HSV-1 replication was significantly reduced (HSV-1) [µM]	IC50 (HSV-1; read-out: average IC50 of HSV-1 replication) [µM]	combined clinical score (epiphora, inflammation, discharge; 0 to +3) ([5]; day 11)	combined clinical score (epiphora, inflammation, discharge; 0 to +3) ([5]; day 25)
OC[C@H]1O[C@@H](n2cnc3cc(Cl)c(Cl)cc32)[C@H](O)[C@@H]1O [DRB, 5,6-Dichlorobenzimidazole-1-β-D-ribofuranoside]	safe and well-tolerated	0.042±0.60	0	10	0.25±0.134	safe and well-tolerated	0.042±0.60	25	86.7	0.00±0.0	0.042±0.60
O=c1[nH]c(=O)n([C@H]2C[C@H](O)[C@@H](CO)O2)cc1C(F)(F)F [TFT, triflurothymidine]		0.0±0.0	0	30	0.278±0.088		0.0±0.0			0.002±0.41	0.00±0.00
